Data from patent US5208246A, “Tetralones with pharmacological activity” (J. Uriach & Cia., priority 1991, dated 1993).

Assays:
[1] = tested on: portal vein isolated from rat; experiment: Test 1: Inhibition of the contraction induced by noradrenaline in portal vein isolated from rat; conditions: 0.5 h
Protocol: Test 1: Inhibition of the contraction induced by noradrenaline in portal vein isolated from rat.
Portal vein was extracted from adult male rats (between 200 and 250 g of body weight), which had been stunned by a blow in the head. Portal vein was installed into an isolated organ bath (Letica) containing a physiological saline solution (Hamilton et al., Br. J. Pharmacol., 1986, 103-111) at 37° C. and a gas bubbler (5% CO2 and 95% O2). Contractions were induced by noradrenaline (3 μM) and were reverted after thoroughly washing with physiological saline solution. Portal vein contraction was measured with an isometric force transducer and with an initial tension of 1 g. After two contractions with noradrenaline, performed in order to measure the tissue's basal response, the tested compounds were incubated for 30 minutes and a new contraction was induced.

hypertense rats = experiment: Test 2: Lowering of the arterial pressure in concious hypertense rats; format: in vivo, rat; conditions: 1 mg/Kg p.o.; spontaneously hypertense rats, conscious; 3 animals; arterial pressure every 60 minutes during 4 hours
Protocol: Test 2: Lowering of the arterial pressure in concious hypertense rats.
Spontaneously hypertense rats (between 200 and 250 g of body weight) of more than 8 weeks of age have been used. Diastolic and systolic arterial pressure of the rat was measured at the caudal artery using a special sphygnomanometer (Letica 5007 and 5007/4) attached to the animal's tail. To ensure rapid and reliable data, animals were placed in a heating plate at 37° C., with the aim to produce a vasodilation that ensured a better fixation of the rat tail to the transfer chamber. During the experiment, rats are conscious and fixed to a clamp. The tested products were administered orally. Arterial pressure was measured every 60 minutes during 4 hours and 10 minutes before the administration of the tested compound. The decrease of the arterial pressure was calculated for each compound at a dose of 1 mg/Kg, using 3 animals.

[2] = tested on: trachea isolated from guinea pig; experiment: Test 3: Direct relaxation of the trachea isolated from guinea pig; conditions: Cavia porcellus; 50% of the maximum relaxation; maximum = relaxation by isoproterenol at 1×10^-6 M; cumulative addition; basal tension 0.5 g; 37° C.
Protocol: Test 3-Direct relaxation of the trachea isolated from guinea pig.
This test was performed according to the experimental model described by Emmerson, J. and Mackay, D. (J. Pharm. Pharmacol., 1979, 31, 798). Tracheas were extracted from male guinea pigs of 400 g of body weight, which had been stunned by a blow in the head. Then, tracheas were cut in zigzag and placed into an isolated organ bath (Letica) containing Krebs-Henseleit solution at 37° C. and were bubbled with carbogen (95% O2 and 5% CO2). The relaxation of the trachea was measured using an isometric force transducer. The basal tension was 0.5 g.

With `CC1(C)C(=O)c2ccc(Br)cc2[C@@H](n2ccccc2=O)[C@@H]1O` (relative stereo) [Compound 14, Trans 6-bromo-4-(1,2-dihydro-2-oxo-1-pyridyl)-2,2-dimethyl-3-hydroxy-1,2,3,4-tetrahydronaphthalen-1-one] the IC50 [1] was 28 µM, the “Pressure Decrease” value (hypertense rats) was 23 mm Hg and the EC50 [2] was over 10 µM.
For `CC(=O)O[C@H]1[C@H](n2ccccc2=O)c2cc(C#N)ccc2C(=O)C1(C)C` (relative stereo) [Compound 24, Trans 3-acetoxy-4-(1,2-dihydro-2-oxo-1-pyridyl)-2,2-dimethyl-1-oxo-1,2,3,4-tetrahydronaphthalen-6-carbonitrile], the IC50 [1] was 23 µM, the “Pressure Decrease” value (hypertense rats) was 64.7 mm Hg and the EC50 [2] was 2.2 µM.
In the case of `CC(=O)N(C)c1ccc2c(c1)C(n1ccccc1=O)=CC(C)(C)C2=O` [Compound 38, 1,2-dihydro-4-(1,2-dihydro-2-oxo-1-pyridyl)-2,2-dimethyl-6N-methylacetamidonaphthalen-1-one], the IC50 [1] is reported as 4.3 µM, the “Pressure Decrease” value (hypertense rats) is reported as 49.3 mm Hg and the EC50 [2] is reported as 1.5 µM.
With `C#Cc1ccc2c(c1)C(n1ccccc1=O)=CC(C)(C)C2=O` [Compound 50, 1,2dihydro-4-(1,2-dihydro-2-oxo-1-pyridyl)-2,2-dimethyl-6-ethynylnaphthalen-1-one] the IC50 [1] was 0.98 µM, the “Pressure Decrease” value (hypertense rats) was 112 mm Hg and the EC50 [2] was 0.25 µM.
For `CC1(C)C(=O)c2ccc(S(=O)(=O)c3ccccc3)cc2[C@@H](n2ccccc2=O)[C@@H]1O` (relative stereo) [Compound 60, Trans 4-(1,2-dihydro-2-oxo-1-pyridyl)-2,2-dimethyl-3-hydroxy-6-phenylsulphonyl-1,2,3,4-tetrahydronaphthalen-1-one], the IC50 [1] was 0.3 µM and the “Pressure Decrease” value (hypertense rats) was 32.5 mm Hg.
In the case of `CC1(C)C(=O)c2ccc(Br)cc2[C@@H](N2CCCC2=O)[C@@H]1O` (relative stereo) [Compound 18, Trans 6-bromo-2,2-dimethyl-3-hydroxy-4-(2-oxo-1-pyrrolidinyl)-1,2,3,4-tetrahydronaphthalen-1-one], the IC50 [1] is reported as over 10 µM, the “Pressure Decrease” value (hypertense rats) is reported as 39 mm Hg and the EC50 [2] is reported as 78 µM.
With `CC1(C)C=C(n2ccccc2=O)c2cc(Cl)ccc2C1=O` [Compound 11, 6-chloro-1,2-dihydro-4-(1,2-dihydro-2-oxo-1-pyridyl)-2,2-dimethylnaphthalen-1-one] the IC50 [1] was 1.4 µM, the “Pressure Decrease” value (hypertense rats) was 53 mm Hg and the EC50 [2] was 1.1 µM.
With `CC1(C)C=C(n2ccccc2=O)c2ccc(Br)cc2C1=O` [Compound 52, 7-bromo-1,2-dihydro-4-(1,2-dihydro-2-oxo-1-pyridyl)-2,2-dimethylnaphthalen-1-one] the IC50 [1] was 2.7 µM and the “Pressure Decrease” value (hypertense rats) was 37 mm Hg.
In the case of `CC1(C)C=C(n2ccccc2=O)c2ccc(C#N)cc2C1=O` [Compound 55, 1,2-dihydro-4-(1,2dihydro-2-oxo-1-pyridyl)-2,2-dimethyl-1-oxonaphthalen-7carbonitrile], the IC50 [1] is reported as over 10 µM and the “Pressure Decrease” value (hypertense rats) is reported as 41 mm Hg.
With `CC1(C)C(=O)c2ccc(C#N)cc2[C@@H](n2ccccc2=O)[C@@H]1O` (relative stereo) [Compound 23, Trans 4(1,2-dihydro-2-oxo-1-pyridyl)-2,2-dimethyl-3-hydroxy-1-oxo-1,2,3,4-tetrahydronaphthalen-6-carbonitrile] the IC50 [1] was 14 µM, the “Pressure Decrease” value (hypertense rats) was 84 mm Hg and the EC50 [2] was 99 µM.
In the case of `CC1(C)C=C(n2ccccc2=O)c2cc(C(F)(F)F)ccc2C1=O` [Compound 42, 1,2-dihydro-4-(1,2-dihydro-2-oxo-1-pyridyl)-2,2-dimethyl-6-trifluoromethylnaphthalen-1-one], the IC50 [1] is reported as 0.35 µM, the “Pressure Decrease” value (hypertense rats) is reported as 103 mm Hg and the EC50 [2] is reported as 31 µM.
With `COc1ccc2c(c1)C(n1ccccc1=O)=CC(C)(C)C2=O` [Compound 6, 1,2-dihydro-4-(1,2-dihydro-2-oxo-1-pyridyl)-2,2-dimethyl-6-methoxynaphthalen-1-one] the IC50 [1] was 21 µM and the “Pressure Decrease” value (hypertense rats) was 42.5 mm Hg.
For `CC1(C)C=C(N2CCCC2=O)c2cc(Cl)ccc2C1=O` [Compound 13, 6-chloro-1,2-dihydro-2,2-dimethyl-4-(2-oxo-1-pyrrolidinyl)naphthalen-1-one], the IC50 [1] was over 10 µM, the “Pressure Decrease” value (hypertense rats) was 32 mm Hg and the EC50 [2] was over 10 µM.
For `CC1(C)C(=O)c2ccc(Br)cc2[C@@H](N2Cc3ccccc3C2=O)[C@@H]1O` (relative stereo) [Compound 22, Trans 6-bromo-4-(2,3-dihydro-1-oxo-1H-isoindol-2-yl)-2,2-dimethyl-3-hydroxy-1,2,3,4-tetrahydronaphthalen-1-one], the IC50 [1] was 3.1 µM, the “Pressure Decrease” value (hypertense rats) was 24 mm Hg and the EC50 [2] was over 50 µM.
For `CC1(C)C=C(N2CCCC2=O)c2cc(Br)ccc2C1=O` [Compound 21, 6-bromo-1,2-dihydro-2,2-dimethyl-4-(2-oxo-1-pyrrolidinyl)naphthalen-1-one], the IC50 [1] was 10 µM, the “Pressure Decrease” value (hypertense rats) was 60.5 mm Hg and the EC50 [2] was 19 µM.
In the case of `CC1(C)C=C(n2ccccc2=O)c2cc(C#N)ccc2C1=O` [Compound 26, 1,2-dihydro-4-(1,2-dihydro-2-oxo-1-pyridyl)-2,2-dimethyl-1-oxonaphthalen-6-carbonitrile], the IC50 [1] is reported as 0.6 µM, the “Pressure Decrease” value (hypertense rats) is reported as 96.5 mm Hg and the EC50 [2] is reported as 0.1 µM.
`CC1(C)C(=O)c2ccc(C(F)(F)F)cc2[C@@H](n2ccccc2=O)[C@@H]1O` (relative stereo) [Compound 41, Trans 4-(1,2-dihydro-2-oxo-1-pyridyl)-2,2-dimethyl-3-hydroxy-1,2,3,4-tetrahydro-6-trifluoromethylnaphthalen-1-one] was tested, and the “Pressure Decrease” value (hypertense rats) was 52.6 mm Hg and the EC50 [2] was 1 µM.
`CC1(C)C(=O)c2cc(Cl)c(Cl)cc2[C@@H](n2ccccc2=O)[C@@H]1O` (relative stereo) [Compound 57, Trans 6,7-dichloro-4-(1,2-dihydro-2-oxo-1-pyridyl)-2,2-dimethyl-3-hydroxy-1,2,3,4-tetrahydronaphthalen-1-one] was tested, and the IC50 [1] was 1.5 µM, the “Pressure Decrease” value (hypertense rats) was 52 mm Hg and the EC50 [2] was 0.5 µM.
`CC1(C)C=C(n2ccccc2=O)c2cc(Br)ccc2C1=O` [Compound 16, 6-bromo-1,2-dihydro-4-(1,2-dihydro-2-oxo-1-pyridyl)-2,2-dimethylnaphthalen-1-one] showed an IC50 [1] of 0.5 µM and an EC50 [2] of 0.2 µM.
With `CC1(C)C=C(n2ccccc2=O)c2cc(C#C[Si](C)(C)C)ccc2C1=O` [Compound 49, 1,2-dihydro-4-(1,2-dihydro-2-oxo-1-pyridyl)-2,2-dimethyl-6-trimethylsilylethynylnaphthalen-1-one] the IC50 [1] was 0.46 µM, the “Pressure Decrease” value (hypertense rats) was 91.5 mm Hg and the EC50 [2] was 4.8 µM.
For `CC1(C)C=C(n2ccccc2=O)c2cc(Cl)c(Cl)cc2C1=O` [Compound 58], the IC50 [1] was 0.7 µM, the “Pressure Decrease” value (hypertense rats) was 58 mm Hg and the EC50 [2] was 0.05 µM.
`CC(=O)N(C)c1ccc2c(c1)[C@@H](n1ccccc1=O)[C@H](O)C(C)(C)C2=O` (relative stereo) [Compound 36, Trans 4-(1,2-dihydro-2-oxo-1-pyridyl)-2,2-dimethyl-3-hydroxy-6-N-methylacetamide-1,2,3,4-tetrahydronaphthalen-1-one] was tested, and the IC50 [1] was 33 µM, the “Pressure Decrease” value (hypertense rats) was 94 mm Hg and the EC50 [2] was over 100 µM.
For `CC(=O)N(C)c1ccc2c(c1)C(N1CCCC1=O)=CC(C)(C)C2=O` [Compound 40, 1,2-dihydro-2,2-dimethyl-6-N-methylacetamido-4-(2-oxo-1-pyrrolidinyl)naphthalen-1-one], the IC50 [1] was 17 µM, the “Pressure Decrease” value (hypertense rats) was 23 mm Hg and the EC50 [2] was 2.5 µM.
`CC1(C)C=C(N2CCCC2=O)c2cc(C#N)ccc2C1=O` [Compound 30] was tested, and the IC50 [1] was 0.8 µM, the “Pressure Decrease” value (hypertense rats) was 103 mm Hg and the EC50 [2] was 0.9 µM.
